Converted amounts (≈) assume the structure as drawn. “Also recorded” adds a separate entry of the source.
Tests used:
349 kinases = experiment: Kinome scan, panel; format: biochemical; conditions: kinome scan against 349 kinases
Text: (§1) (S)-1-(1-acryloylpiperidin-3-yl)-2-fluoro-5,6,7,8,9,10-hexahydrocyclohepta[b]indole-4-carboxamide, hereinafter referred to as “Compound 1”, is an orally available, selective, potent inhibitor of Bruton's tyrosine kinase (BTK), thereby providing potential treatment options in BTK-driven diseases. The potency of Compound 1 for BTK inhibition is in the nM range in both cell-free enzymatic and whole blood functional assays.

[1] = CNS penetration (background statement)
Text: as §1

[2] = Solubility testing in aqueous media at various pH (Form III); format: physicochemical; conditions: thermodynamic from solid
Procedure: 0.833 mL concentrated hydrochloric acid was diluted to 100 mL with water (pH=1.0).
Added appropriate amount of water to 0.1N HCl, adjust the pH to 1.2.
KH2PO4 (1360.0 mg) and NaOH (310.0 mg) are mixed in a 200 mL volumetric flask. Water was added to dissolve the solid and dilute to the volume. The flask was shaken to achieve good mixing. (pH=7.42).
Solubility was measured in pH 1.0 water, pH 1.2 buffer and pH 7.4 buffer at room temperature and 37° C. About 10-15 mg of sample was weighed into sample vials and then 2.0/3.0 mL of 0.1 N HCl solution, pH 1.2 buffer and pH 7.4 buffer media, and water were added, respectively. Samples were run in duplicate for each medium. The suspensions were shaken at room temperature or 37° C. Residual solid was collected for XRPD analysis, though no form change occurred during testing. In all instances, very low solubility was observed.

[3] = Stability testing of formulations and Compound 1 alone (impurities, HPLC); format: physicochemical; conditions: 40° C.
Procedure: Both gels were prepared using Titanium Dioxide, Iron Oxide, Red and FD&C Blue #1 as colorants. One dried swatch of gel 004007 was added to the gel 1 samples and one dried swatch of 004013 was added to gel 2.
The samples were stored in 6 mL amber glass vials at: room temperature, 40° C., 50° C. and 5° C. for up 8 weeks. Control samples (Compound 1 alone) were analyzed in parallel with the study samples and control peaks were subtracted from the total impurities.

[4] = Phase 1 safety and tolerability; format: in vivo, human; conditions: healthy subjects, blinded safety data
Procedure: The study investigates the administration of Compound 1 to healthy human subjects, to evaluate the safety, tolerability and PK of single and multiple-escalating doses. Additional objectives include assessing the effect of formulation on PK, the effect of food on PK, the effect of a CYP3A inhibitor on PK and the effect of Compound 1 on CYP3A activity. PK parameters including AUC, AUC, Cmax, and Tmax are determined. An additional exploratory objective evaluates pharmacodynamics, as the time-course of BTK inhibition. The study is conducted with up to 144 healthy male and female subjects, aged 18-55 years, with a body weight over 48 kg, BMI 18.5-30.0 kg/m^2, with no clinically significant abnormalities.
Safety is assessed throughout the study and PK and PD are characterized using serial blood samples collected up to 48 hours post-dose for Compound 1 plasma concentrations, BTK target occupancy (TO) and target engagement (TE). Cerebrospinal fluid (CSF) samples are collected at 2 hours post-dose to characterize the relationship between Compound 1 plasma concentrations and CNS penetrance (CSF/Unbound plasma concentration). Compound 1 PK parameters (e.g., AUClast, AUCinf, Cmax, Tmax, t1/2) are estimated by standard noncompartmental methods. […]

[5] = pH 7.4 buffer (KH2PO4/NaOH), aqueous buffer, pH 7.4 Buffer, 37° C.
[6] = pH 7.4 buffer (KH2PO4/NaOH), aqueous buffer, pH 7.4 Buffer, RT
[7] = simulated gastric fluid, pH 1.0 (0.1N HCl), RT
[8] = simulated gastric fluid, pH 1.2 Buffer, 37° C.

kinase selectivity (349 kinases): high kinase selectivity
CNS penetration [1]: penetrant
solubility at 4 h [2, 5]: 0.8 µg/mL (≈ 2.09 µM)
solubility at 24 h [2, 5]: 0.8 µg/mL (≈ 2.09 µM)
solubility at 24 h [2, 6]: 0.8 µg/mL (≈ 2.09 µM)
solubility at 48 h [2, 6]: 1.7 µg/mL (≈ 4.43 µM)
solubility at 4 h [2, 7]: 0.7 µg/mL (≈ 1.83 µM)
solubility at 24 h [2, 7]: 0.8 µg/mL (≈ 2.09 µM)
solubility at 48 h [2, 7]: 1.6 µg/mL (≈ 4.17 µM)
solubility at 4 h [2, 8]: 0.9 µg/mL (≈ 2.35 µM)
solubility at 24 h [2, 8]: 0.9 µg/mL (≈ 2.35 µM)
solubility at 4 h ([2]; Water (pH 5.0), 37° C.): 0.6 µg/mL (≈ 1.56 µM)
solubility at 24 h ([2]; Water (pH 5.0), 37° C.): 0.7 µg/mL (≈ 1.83 µM)
Compound 1 Related Impurities, RRT 0.73 ([3]; T = 0): 0.05 % adjusted area
Compound 1 Related Impurities, RRT 0.79 ([3]; T = 0): <LOQ
Compound 1 Related Impurities, RRT 0.84 ([3]; T = 0): 0.07 % adjusted area
Compound 1 Related Impurities, RRT 0.91 ([3]; T = 0): 0.10 % adjusted area
Compound 1 Related Impurities, RRT 0.93 ([3]; T = 0): 0.06 % adjusted area
Compound 1 Related Impurities, RRT 1.08 ([3]; T = 0): 0.07 % adjusted area
Compound 1 Related Impurities, RRT 1.13 ([3]; T = 0): 0.36 % adjusted area
Compound 1 Related Impurities, Total ([3]; T = 0): 0.71 % adjusted area
Compound 1 Related Impurities, RRT 0.73 ([3]; T = 3 weeks): 0.06 % adjusted area
Compound 1 Related Impurities, RRT 0.79 ([3]; T = 3 weeks): <LOQ
Compound 1 Related Impurities, RRT 0.84 ([3]; T = 3 weeks): 0.05 % adjusted area
Compound 1 Related Impurities, RRT 0.91 ([3]; T = 3 weeks): 0.07 % adjusted area
Compound 1 Related Impurities, RRT 0.93 ([3]; T = 3 weeks): 0.07 % adjusted area
Compound 1 Related Impurities, RRT 1.08 ([3]; T = 3 weeks): 0.07 % adjusted area
Compound 1 Related Impurities, RRT 1.13 ([3]; T = 3 weeks): 0.30 % adjusted area
Compound 1 Related Impurities, Total ([3]; T = 3 weeks): 0.62 % adjusted area
Compound 1 Related Impurities, RRT 0.47 ([3]; T = 8 weeks): 0.07 % adjusted area
Compound 1 Related Impurities, RRT 0.73 ([3]; T = 8 weeks): 0.05 % adjusted area
Compound 1 Related Impurities, RRT 0.79 ([3]; T = 8 weeks): <LOQ
Compound 1 Related Impurities, RRT 0.84 ([3]; T = 8 weeks): 0.06 % adjusted area
Compound 1 Related Impurities, RRT 0.91 ([3]; T = 8 weeks): 0.08 % adjusted area
Compound 1 Related Impurities, RRT 0.93 ([3]; T = 8 weeks): 0.05 % adjusted area
Compound 1 Related Impurities, RRT 1.04 ([3]; T = 8 weeks): 0.12 % adjusted area
Compound 1 Related Impurities, RRT 1.08 ([3]; T = 8 weeks): 0.06 % adjusted area
Compound 1 Related Impurities, RRT 1.13 ([3]; T = 8 weeks): 0.32 % adjusted area
Compound 1 Related Impurities, Total ([3]; T = 8 weeks): 0.81 % adjusted area
SMILES: C=CC(=O)N1CCC[C@@H](c2c(F)cc(C(N)=O)c3[nH]c4c(c23)CCCCC4)C1 [Compound 1, (S)-1-(1-acryloylpiperidin-3-yl)-2-fluoro-5,6,7,8,9,10-hexahydrocyclohepta[b]indole-4-carboxamide]
safety and tolerability ([4]; MAD cohort, 15 mg once daily for 10 days, fed): generally well tolerated with no serious adverse events or early study discontinuations reported
safety and tolerability ([4]; SAD cohorts, single dose 5 to 200 mg, fed (moderate-fat meal)): generally well tolerated with no serious adverse events or early study discontinuations reported; also recorded: well tolerated across the dose range

Reference: patent US20250243176A1, “(S)-1-(1-ACRYLOYLPIPERIDIN-3-YL)-2-FLUORO-5,6,7,8,9,10-HEXAHYDROCYCLO HEPTA[B]INDOLE-4-CARBOXAMIDE, AND RELATED CRYSTALLINE FORMS, COMPOSITIONS, AND METHODS THEREOF” (GB005, Inc., priority 2021, published 2025)
